Measured values taken from article PMC11355573, “A New Renieramycin T Right-Half Analog as a Small Molecule Degrader of STAT3” (Marine Drugs, 2024).
Like-named read-outs stand apart in the source and are kept apart here. Residues, ends and D or L forms follow the SMILES beside them. *: point of attachment. Cbz = O=C(OCc1ccccc1)*

Assays:
H460 cells [1] = conditions: cited from earlier work
H460 cells [2] = assay: MTT cell viability assay (cytotoxicity); format: cell-based, human; conditions: read-out: IC50 ± SD H460
Experimental: (§1) NSCLCs H292 and H460 were treated with various concentrations of derivatives of the RT right-half analog for 24 h. […] However, the IC50 values for DH_17, DH_20, DH_23, and DH_26 in H460 cells were greater than 100 μM. TM-(−)-18 was identified as a potent compound in a previous study. The structure of TM-(−)-18 was present in Figure 1A. […] To assess the selectivity of DH_28, DH_30, DH_31, and TM-(−)-18 in lung cancer cells, non-tumorigenic epithelial cell lines derived from human bronchial epithelial cells (BEAS-2B) were treated with DH_28, DH_30, DH_31, and TM-(−)-18 at various concentrations for 24 h.
(§2) MTT assay was conducted to ascertain cell viability in the presence of DH_17, DH_20, DH_23, DH_26, DH_28, DH_30, DH_31, or TM-(–)-18. H292 and H460 cells (1.0 × 10^4 cells per well) were seeded in 96-well plates. Following overnight incubation, the cells were treated with different concentrations of RT right–half analogs (0–100 μM) for 24 h at 37 °C. Subsequently, cell viability was assessed using MTT assay, following the manufacturers’ protocols. The optical density was measured at 570 nm using a CLARIOStar microplate reader (BMG Labtech, Ortenberg, Germany).

H292 cells [3] = assay: MTT cell viability assay (cytotoxicity); format: cell-based, human; conditions: read-out: IC50 ± SD H292
Experimental: as §1, §2

H460 cells [4] = format: cell-based; conditions: H460, 10 µM, 24 h
Experimental: (§3) Apoptosis is a crucial mechanism of cell death induced by anticancer drugs. We further analyzed the apoptosis induction effect of the potent small molecules, namely DH_28, DH_30, and DH_31. Nuclear morphology detected by the staining with nucleus-specific fluorescence dye Hoechst 33342 and cell-impermeable PI for necrotic detection was performed. Morphologic changes by means of condensed and/or fragmented nuclei were observed after 24 h of treatment (Figure 2D). […] Therefore, DH_31 was selected for further experiments.
(§4) Figure 2 The effect of RT right-half analogs on cytotoxicity in NSCLC and human normal lung epithelial (BEAS-2B) cell lines and apoptotic cell death in NSCLC cells. (A) NSCLC H292 and H460 cells were treated with derivatives of RT right-half analogs for 24 h and analyzed using MTT assay to assess cytotoxicity. (B) IC50 values for H292 and H460 cell lines were calculated. (C) BEAS-2B cells were treated with DH_28, DH_30, DH_31, and TM-(−)-18 for 24 h. The cytotoxic effects were evaluated using an MTT assay, and the IC50 values for BEAS-2B cells were determined. (D) H292 and H460 cells were seeded and treated with 0–10 μM of DH_28, DH_30, and DH_31 for 24 h. Hoechst 33342 and PI were used to stain the cell nuclei. Images were obtained under a fluorescence microscope. (E) The percentages of cell death were calculated based on the stained images in H292 and H460 cells. Data represent the mean ± SD (n = 3). *, **, and *** indicate a statistically significant difference between the treated and the untreated cells at p < 0.05, p < 0.01, and p < 0.001, respectively. TEXT PRINTED IN THE PICTURE: (B) DH_17: IC50 ± SD (μM) H292: 20.50 ± 3.69; IC50 ± SD (μM) H460: > 100 | (B) DH_20: IC50 ± SD (μM) H292: 21.46 ± 3.77; IC50 ± SD (μM) H460: > 100 | (B) DH_23: IC50 ± SD (μM) H292: 17.50 ± 3.08; IC50 ± SD (μM) H460: > 100 | (B) DH_26: IC50 ± SD (μM) H292: 7.18 ± 2.39; IC50 ± SD (μM) H460: > 100 | (B) DH_28: IC50 ± SD (μM) H292: 9.56 ± 1.87; IC50 ± SD (μM) H460: 11.48 ± 1.87 | (B) DH_30: IC50 ± SD (μM) H292: 7.80 ± 2.30; IC50 ± SD (μM) H460: 4.51 ± 0.78 | (B) DH_31: IC50 ± SD (μM) H292: 5.54 ± 1.04; IC50 ± SD (μM) H460: 2.90 ± 0.58 | (B) TM-(–)-18: IC50 ± SD (μM) H292: > 100; IC50 ± SD (μM) H460: 7.89 ± 1.27 | (C) DH_28: BEAS-2B IC50 ± SD (μM): 16.46 ± 2.11 | (C) DH_30: BEAS-2B IC50 ± SD (μM): 5.50 ± 1.70 | (C) DH_31: BEAS-2B IC50 ± SD (μM): 6.51 ± 1.40 | (C) TM-(–)-18: BEAS-2B IC50 ± SD (μM): 7.25 ± 1.25 DOUBTS OF THE COPYIST ABOUT THIS PICTURE: Panel C, DH_28, IC50: small print, 16.46 ± 2.11 is the best reading; 6 could be 8 / Panel C, DH_30, IC50: small print, 5.50 ± 1.70 is the best reading; 5 could be 6 / Panel C, DH_31, IC50: small print, 6.51 ± 1.40 is the best reading; 6 could be 8 or 5 / Panel C, TM-(–)-18, IC50: small print, 7.25 ± 1.25 is the best reading

H292 cells [5] = format: cell-based; conditions: H292, 10 µM; for apoptosis: 24 h; for necrosis: 24 h (p < 0.001)
Experimental: as §3, §4

BEAS-2B cells = assay: MTT assay in non-tumorigenic bronchial epithelial cells (selectivity); format: cell-based; conditions: Homo sapiens, 24 h, read-out: BEAS-2B IC50 ± SD
Experimental: as §1
as §4, with “Data represent the mean ± SD (n = 3). *, **, and *** indicate a statistically significant difference between the treated and the untreated cells at p < 0.05, p < 0.01, and p < 0.001, respectively.” left out

STAT3 = target: T1, STAT3 (Homo sapiens, UniProt P40763); assay: STAT3 proteasomal degradation, Western blot with or without MG132; format: cell-based
T1 construct: endogenous in cells; host or cells: NCI-H460 (ATCC HTB-177)
T1 sequence (P40763 whole entry): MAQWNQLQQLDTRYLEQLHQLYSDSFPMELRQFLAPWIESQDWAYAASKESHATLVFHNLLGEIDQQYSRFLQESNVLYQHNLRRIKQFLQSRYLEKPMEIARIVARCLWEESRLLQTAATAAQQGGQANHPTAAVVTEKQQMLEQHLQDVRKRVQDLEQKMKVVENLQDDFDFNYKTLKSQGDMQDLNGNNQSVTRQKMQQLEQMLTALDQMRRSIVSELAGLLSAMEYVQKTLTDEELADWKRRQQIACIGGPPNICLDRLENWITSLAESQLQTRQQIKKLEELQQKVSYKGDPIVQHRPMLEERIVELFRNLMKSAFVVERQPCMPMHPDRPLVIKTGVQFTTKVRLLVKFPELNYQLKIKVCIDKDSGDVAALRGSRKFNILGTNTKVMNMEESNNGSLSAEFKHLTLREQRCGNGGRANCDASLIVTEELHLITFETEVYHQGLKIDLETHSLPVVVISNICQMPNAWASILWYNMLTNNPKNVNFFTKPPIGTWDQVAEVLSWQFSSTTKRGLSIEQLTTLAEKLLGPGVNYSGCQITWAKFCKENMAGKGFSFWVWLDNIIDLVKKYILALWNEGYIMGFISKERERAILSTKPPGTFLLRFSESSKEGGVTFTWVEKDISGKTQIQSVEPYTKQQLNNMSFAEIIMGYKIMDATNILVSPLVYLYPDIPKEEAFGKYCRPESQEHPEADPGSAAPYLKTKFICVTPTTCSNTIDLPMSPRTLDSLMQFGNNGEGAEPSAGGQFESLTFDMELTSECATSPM
Experimental: To explore whether the reduction in total STAT3 protein after DH_31 treatments (as shown in Figure 5B–E) occurs at the mRNA or protein levels, we first investigated mRNA levels using Real-time qPCR. […] To evaluate whether DH_31 affects STAT3 stability, pretreatment with MG132, a potent selective proteasome inhibitor, was performed. H460 cells were pretreated with or without MG132 (10 μM) for 1 h and then cells were either treated with DH_31 for 6 h or left untreated. […] The proteasome can recognize and degrade protein targets that are conjugated by single or poly-ubiquitin molecules. To investigate the ubiquitination level of STAT3 with DH_31 treatments, the ubiquitination level was evaluated using immunoprecipitation and Western blot analysis of the STAT3–ubiquitin complex in the lung cancer cells treated with DH_31 and in untreated cells.
Immunoprecipitation assay was performed to investigate ubiquitin–proteasomal degradation, shedding light on the regulatory mechanisms involved. H460 cells (4.0 × 10^5 cells per well) were seeded in 6-well plates. Following overnight incubation, the cells were pretreated with 10 μM of a proteasome inhibitor, MG132, for 1 h to prevent proteasomal degradation, and then were treated with different concentrations of DH_31 (0–2.5 μM) for 6 h. After treatment, the cells were lysed as described above. Immunoprecipitation was carried out using the Dynabeads™ Protein G Immunoprecipitation kit, following the manufacturers’ protocols. The magnetic beads were coated with the rabbit anti-STAT3, then incubated with whole-cell lysate and mixed gently overnight at 4 °C. After washing, the supernatant containing the antibody–antigen complex was used to perform Western blot analysis to detect the ubiquitinated STAT3 protein.

B16F10 cells = test system: B16F10 cells; set-up: method as in PMID 36014573; conditions: B16F10 cells induced by the RAW264.7 supernatant; cited from earlier work
[6] = set-up: method as in PMID 32260280; conditions: concentration-dependent manner; cited from earlier work

For 22-O-(N-Boc-L-glycine) ester of RM, the H460 cell motility (H460 cells [1]) is listed as “inhibited”.

COc1c(C)cc2c(c1O)[C@@H]1CN(Cc3ccccn3)[C@@H](C#N)[C@H](C2)N1C [DH_17, (1R,4R,5S)-10-hydroxy-9-methoxy-8,11-dimethyl-3-(pyridin-2-ylmethyl)-1,2,3,4,5,6-hexahydro-1,5-epiminobenzo[d]azocine-4-carbonitrile] gave an IC50 (H460 cells [2]; Homo sapiens, NCI-H460, 24 h) of over 100 µM and an IC50 (H292 cells [3]; Homo sapiens, NCI-H292, 24 h) of 20.5 ± 3.69 µM.

COc1c(C)cc2c(c1O)[C@@H]1CN(Cc3cccnc3)[C@@H](C#N)[C@H](C2)N1C [DH_20, (1R,4R,5S)-10-hydroxy-9-methoxy-8,11-dimethyl-3-(pyridin-3-ylmethyl)-1,2,3,4,5,6-hexahydro-1,5-epiminobenzo[d]azocine-4-carbonitrile] gave an IC50 (H460 cells [2]; Homo sapiens, NCI-H460, 24 h) of over 100 µM and an IC50 (H292 cells [3]; Homo sapiens, NCI-H292, 24 h) of 21.5 ± 3.77 µM.

With COc1c(C)cc2c(c1O)[C@@H]1CN(Cc3ccncc3)[C@@H](C#N)[C@H](C2)N1C [DH_23, (1R,4R,5S)-10-hydroxy-9-methoxy-8,11-dimethyl-3-(pyridin-4-ylmethyl)-1,2,3,4,5,6-hexahydro-1,5-epiminobenzo[d]azocine-4-carbonitrile] the IC50 (H460 cells [2]; Homo sapiens, NCI-H460, 24 h) was over 100 µM and the IC50 (H292 cells [3]; Homo sapiens, NCI-H292, 24 h) was 17.5 ± 3.08 µM.

COc1c(C)cc2c(c1O)[C@@H]1CN(Cc3cncs3)[C@@H](C#N)[C@H](C2)N1C [DH_26, (1R,4R,5S)-10-hydroxy-9-methoxy-8,11-dimethyl-3-(thiazol-5-ylmethyl)-1,2,3,4,5,6-hexahydro-1,5-epiminobenzo[d]azocine-4-carbonitrile] gave an IC50 (H460 cells [2]; Homo sapiens, NCI-H460, 24 h) of over 100 µM and an IC50 (H292 cells [3]; Homo sapiens, NCI-H292, 24 h) of 7.18 ± 2.39 µM.

With COc1c(C)cc2c(c1O)[C@@H]1CN(Cc3cccc4ccccc34)[C@@H](C#N)[C@H](C2)N1C [DH_28, (1R,4R,5S)-10-hydroxy-9-methoxy-8,11-dimethyl-3-(naphthalen-1-ylmethyl)-1,2,3,4,5,6-hexahydro-1,5-epiminobenzo[d]azocine-4-carbonitrile] the apoptotic cell death (H460 cells [4]) was “significant apoptotic cell death”, the necrosis (H460 cells [4]) was “significant necrosis” and the apoptosis (H292 cells [5]) was “significant apoptosis”. For the same compound, the necrosis (H292 cells [5]) was “Necrosis was detected”, the IC50 (H460 cells [2]; 24 h) was under 15 µM and the IC50 (H460 cells [2]; Homo sapiens, NCI-H460, 24 h) was 11.5 ± 1.87 µM. The IC50 (H292 cells [3]; 24 h) was under 15 µM, the IC50 (H292 cells [3]; Homo sapiens, NCI-H292, 24 h) was 9.56 ± 1.87 µM and the IC50 (BEAS-2B cells) was 16.5 ± 2.11 µM.

In the case of COc1c(C)cc2c(c1OCc1ccccc1)[C@@H]1CN(Cc3ccc4ccccc4c3)[C@@H](C#N)[C@H](C2)N1C [DH_30, (1R,4R,5S)-10-(benzyloxy)-9-methoxy-8,11-dimethyl-3-(naphthalen-2-ylmethyl)-1,2,3,4,5,6-hexahydro-1,5-epiminobenzo[d]azocine-4-carbonitrile], the apoptotic cell death (H460 cells [4]) is reported as “significant apoptotic cell death”, the necrosis (H460 cells [4]) is reported as “significant necrosis” and the apoptosis (H292 cells [5]) is reported as “significant apoptosis”. For the same compound, the necrosis (H292 cells [5]) was “Necrosis was detected”, the IC50 (H292 cells [3]; 24 h) was under 15 µM and the IC50 (H292 cells [3]; Homo sapiens, NCI-H292, 24 h) was 7.8 ± 2.3 µM. The IC50 (BEAS-2B cells) was 5.5 ± 1.7 µM.

In the case of CC(C)C[C@@H](C=O)NC(=O)[C@H](CC(C)C)NC(=O)[C@H](CC(C)C)NC(=O)OCc1ccccc1 [MG132] (Cbz-Leu-Leu-Leu-aldehyde), the “effect on DH_31-induced STAT3 downregulation” value (STAT3; H460, MG132 10 μM 1 h pretreatment, then DH_31 0, 1, 2.5 µM 6 h) is reported as “significantly reversed” and the STAT3 level (STAT3; H460, MG132 10 μM pretreatment, all DH_31 concentrations) is reported as “drastically increased”.

In the case of CC=C(C)C(=O)OCC1c2c(c(O)c(C)c3c2OCO3)CC2C3C4=C(CC(C(C#N)N12)N3C)C(=O)C(C)=C(OC)C4=O (stereo not shown) [RT, Renieramycin T], the STAT3 expression (B16F10 cells) is given as “reduced”, the “Twist, Snail, Vimentin, and N-cadherin expression” value (B16F10 cells) is given as “reduced” and the migration ability (B16F10 cells) is given as “reduced”.

In the case of COc1c(C)cc2c(c1O)C1CN(Cc3ccccc3)C(C#N)C(C2)N1C (stereo not drawn) [TM-(−)-18, reference compound], the apoptosis [6] is listed as “increased”, the IC50 (H460 cells [2]; Homo sapiens, NCI-H460, 24 h) is listed as 7.89 ± 1.27 µM and the IC50 (H292 cells [3]; Homo sapiens, NCI-H292, 24 h) is listed as over 100 µM. It also gave an IC50 (BEAS-2B cells) of 7.25 ± 1.25 µM.
